The results in this text go back to the METLIN SMRT retention time set (Domingo-Almenara et al. 2019).

A short description of the series: gradient 5% acetonitrile 3 min, to 50% in 2 min, to 85% in 15 min, held 3 min, 100 µL/min. Particulars: column: Zorbax Extend-C18 2.1 x 50 mm; eluents: water / acetonitrile, 0.1% formic acid. In short, it runs like this: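 Standards, all pure, were combined into mixtures of ~100 molecules and run at 100 μL/min on a Zorbax Extend-C18 column (2.1 × 50 mm, 1.8 μm) with water and acetonitrile, each containing 0.1% formic acid. A coupled quadrupole time-of-flight mass spectrometer operated in positive and negative ionization mode. Retention time values come from computationally picked adduct peaks, each inspected manually.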
`O=C(c1ccccc1)N1CCCC1c1nc(-c2ccccc2Cl)no1` (stereo not given) yielded an RP-LC retention time of 978 s.
Regarding `O=C(COc1ccc2ccccc2c1)NCC(O)c1ccc(C(F)(F)F)cc1` (stereo not given), the RP-LC retention time came to 898 s.
The figure for `CC(C)c1csc(-c2csc(S(=O)(=O)Nc3ccc(Br)cc3F)c2)n1` is 1200 s.
The molecule `COCCOC1CCOC2(CCN(S(=O)(=O)c3cccc(OC)c3)CC2)C1` (stereo not given) yielded an RP-LC retention time of 818 s.
In turn, `CCc1nn(C)c(=O)c2cc(S(=O)(=O)NCc3ccc(Cl)cc3)cn12` yielded an RP-LC retention time of 911 s.
The molecule `COc1cc(OC)cc(C(=O)N2CCN(c3nc4ccccc4cc3-c3noc(C)n3)CC2)c1` showed an RP-LC retention time of 971 s.
`O=C(NCC1CCOCC1)Nc1ccc(C(F)(F)F)cc1` returned an RP-LC retention time of 734 s.
The result for `O=C(CN1CCN(C(=O)Nc2ccc(Br)cc2)CC1=O)NCCC1=CCCCC1` reads 834 s.
`COc1ccc(Cl)cc1NC(=O)NCC1CN(CC2CC2)CC12CCCCC2` (stereo not given) showed an RP-LC retention time of 786 s.
Regarding `O=C(NCc1ccco1)c1cc(C2CC2)on1`, the RP-LC retention time was determined as 717 s.
For `CN(C)c1cccc(/C=C(\C#N)c2ccccc2)c1`, the RP-LC retention time was 1100 s.
On to `O=C(Cn1cc(-c2nnco2)c2ccccc21)NCc1ccccc1F`, for which the RP-LC retention time was 755 s.
`Cn1nccc1-c1cccc(-c2noc(-c3cccc(C#N)c3)n2)c1` had an RP-LC retention time of 1030 s.
Molecule `Cc1nc(-c2ccc(-c3noc(COc4ccccc4)n3)cc2)cs1` registered an RP-LC retention time of 1180 s.
With `Cc1noc(CNC(=O)C2CCN(C(=O)NCc3ccc(F)cc3)CC2)n1`, the RP-LC retention time was determined as 615 s.
On to `CCc1ccc(CNC(=O)CC2CCN(C(=O)c3[nH]c(C)cc3C)CC2)cc1`, for which the RP-LC retention time came out at 857 s.
`CC(C)c1nnc(-c2cccnc2N2CCN(C(=O)c3ccoc3)CC2)o1` showed an RP-LC retention time of 725 s.
`CC1=C(c2ccc(C)cc2)S(=O)(=O)N=C1N1CCCN(C(=O)c2ccc(F)cc2)CC1`: the RP-LC retention time was 859 s.
The molecule `CCc1noc(NC(C)=O)c1-c1ccc(OC)c(S(=O)(=O)NC2CCCCC2)c1` gave an RP-LC retention time of 804 s.
The figure for `CN(C(=O)c1cc2c(=O)oc3ccccc3c2n1C)C1CCCCC1` is 908 s.
The figure for `CNC(=O)[C@@H]1CN(C(=O)Cn2c(=O)oc3ccccc32)C[C@H]1COC` is 594 s; for `CCS(=O)(=O)N1CCCCCC1c1ccccc1Cl` (stereo not given) it is 1090 s; for `Cc1ccc(-c2noc(Cn3cnc4c(cnn4-c4ccc(C(C)C)cc4)c3=O)n2)cc1` it is 1300 s.
`CC(C)NC(=O)NC1CCN(c2nc3ccccc3n(C)c2=O)CC1` returned an RP-LC retention time of 562 s.
`O=C(NCC1CCOCC1)c1n[nH]c2ccccc12` came in with an RP-LC retention time of 654 s.
Turning to `O=S(=O)(c1ccc(-c2noc(-c3ccccc3Br)n2)cc1)N1CCCC1`, the RP-LC retention time stood at 1220 s.
Consider `Cc1sc(NC(=O)c2ccccc2)c(C(=O)NCCN(C)C)c1C`, for which the RP-LC retention time came to 677 s.
`COc1ccc(-c2cc(C(=O)N3CCOCC3)nn2C2CCS(=O)(=O)C2)cc1` (stereo not given) showed an RP-LC retention time of 704 s.
Consider `O=S(=O)(c1ccc(N2CCN(c3ccccn3)CC2)nn1)C1CCCCC1`, for which the RP-LC retention time was 608 s.
With `CN(C)c1ccc(CNC(=O)c2cc3c(=O)n(C)ccc3n2C)cc1`, the RP-LC retention time was 579 s.
`O=C(NCC1CCN(C(=O)c2ccccc2F)CC1)c1ccccn1`: the RP-LC retention time was determined as 667 s.
Regarding `Cc1ccsc1C(=O)NCC1Cn2cccc2C(=O)N1CC(C)C` (stereo not given), the RP-LC retention time turned out to be 783 s.
The figure for `O=C(c1ccncc1)N1CC(C(=O)N2CCSCC2)C2(CCCCC2)C1` (stereo not given) is 620 s; for `O=C(CSc1nnc(-c2cccs2)o1)N1CCc2ccccc21` it is 875 s; for `Cc1nnc(-c2ccc3ccn(CC(=O)Nc4ccc5c(c4)OCCO5)c3c2)o1` it is 756 s.
`CCOc1ccc(CNC(=O)C2CCN(S(=O)(=O)N(CC(C)C)CC(C)C)CC2)cc1OC`: the RP-LC retention time came to 1040 s.
The figure for `COc1cc2nc(C(=O)N3CCC(C)CC3)cc(Nc3cccc(SC)c3)c2cc1OC` is 776 s; for `Cc1nc(N2CCCC(C(=O)Nc3ccc4c(c3)OCCO4)C2)c2c(C)c(C)oc2n1` (stereo not given) it is 846 s; for `O=S(=O)(c1ccccc1F)N1CC(c2nc(Cc3ccccc3)no2)C1` it is 976 s.
`CSc1nc(NC(C)C)c(C#N)c(-c2ccccc2)n1` returned an RP-LC retention time of 1190 s.
Consider `CCOc1ccc(NC(=O)c2cnc3c(c2)c(=O)n(C)c(=O)n3C)cc1`, for which the RP-LC retention time was 704 s.
`COc1ccc2c(Oc3ccc(NC(=O)c4c(C)n(CC(C)(C)O)n(-c5ccccc5)c4=O)nc3)ccnc2c1` returned an RP-LC retention time of 707 s.
`Cc1ccc(Nc2nc(C)cc(N3CCN(S(=O)(=O)c4cccc(C(F)(F)F)c4)CC3)n2)cc1` returned an RP-LC retention time of 886 s.
In turn, `O=C(NCCN1CCOCC1)c1csc(N2CCN(c3ccccc3)CC2)n1` yielded an RP-LC retention time of 650 s.
For the molecule `COc1ccccc1CC(=O)N1CCC2(CC1)N=C(c1ccccc1)NO2`, the RP-LC retention time amounted to 791 s.
`Cc1ncoc1C(=O)N1CC(n2cc(COc3ccc(F)cc3)nn2)C1` gave an RP-LC retention time of 722 s.
In the case of `COc1ccc(Nc2c(C(=O)N3CCCC3)cnc3nc(C)ccc23)c(OC)c1`, the RP-LC retention time was 600 s.
`O=C(Cc1ccc(F)cc1)N1CCN(Cc2nc(C3CC3)cs2)CC1` registered an RP-LC retention time of 610 s.
For `O=C(Nc1nnc(SCc2nnc(-c3ccccc3)o2)s1)C1CCCCC1`, the RP-LC retention time was 934 s.
With `CN(C1CCc2nn(CC3CC3)c(=O)n2CC1)S(=O)(=O)c1ccc(C(F)(F)F)cc1` (stereo not given), the RP-LC retention time came out at 876 s.
Take `Cc1nnsc1C(=O)N1CCN(c2nc3ccc(OC(F)(F)F)cc3s2)CC1`: the RP-LC retention time is 903 s.
The result for `CCn1nc(-c2nc(C(C)(C)C)no2)ccc1=O` reads 883 s; that for `CCC1CCCCN1CCNC(=O)CCc1cc2cc(OC)ccc2[nH]c1=O` (stereo not given), 593 s.
`COc1ccccc1N1CCN(c2nc3c(c(Nc4ccccc4)n2)C(=O)CCC3)CC1`: the RP-LC retention time was determined as 1270 s.
In turn, `CS(=O)(=O)N1CCC(F)(c2nc(-c3ccccc3)no2)CC1` came in with an RP-LC retention time of 913 s.
As for `COc1ccc(Nc2c(C(=O)N3CCCCC3)cnc3nc(C)ccc23)cc1`, the RP-LC retention time was 605 s.
For the molecule `CCCn1cc(C2=CCN(S(=O)(=O)Cc3ccc(Cl)cc3)CC2)c2cccnc21`, the RP-LC retention time worked out at 1100 s.
The result for `COc1ccc(-c2c(C)noc2NC(C)=O)cc1S(=O)(=O)Nc1ccc(F)cc1C` reads 770 s; that for `CCCCNc1cc(C)nc2nc(-c3ccc(C(C)(C)C)cc3)nn12`, 1100 s; that for `O=C(NCc1nc2ccccc2[nH]1)c1ccc(OCC(=O)C2CC2)cc1`, 561 s.
Take `COc1ccc(CC(=O)N2CCCC2COc2ccc(C(=O)N3CCCC3)cc2)cc1` (stereo not given): the RP-LC retention time turned out to be 824 s.
The molecule `CCN(CC)CCNC(=O)c1cc(S(=O)(=O)N2CCCCC2)ccc1Cl` displayed an RP-LC retention time of 637 s.
In the case of `Cc1csc(-c2cc(S(=O)(=O)N3CCOCC3)cn2CC(=O)N2CCCCC2)n1`, the RP-LC retention time is 846 s.
With `Cn1c(=O)c(N2CCC(NC(=O)Nc3ccc(F)cc3)CC2)nc2ccccc21`, the RP-LC retention time was found to be 849 s.
For the molecule `Cc1oc(-c2[nH]ncc2C(=O)N2CCOCC2)cc1S(=O)(=O)NC1CCCC1`, the RP-LC retention time stood at 645 s.
On to `Cc1ccc(C)c(Cn2nc3c(S(=O)(=O)N4CCCC4)cccn3c2=O)c1`, for which the RP-LC retention time worked out at 914 s.
With `Cc1ccc2[nH]c(=O)c(CCC(=O)N3CCCN(c4ncccn4)CC3)cc2c1`, the RP-LC retention time worked out at 654 s.
Molecule `COc1ccc2c(c1)CC(NC(=O)NCc1ccc(OC)cc1OC)CO2` (stereo not given) came in with an RP-LC retention time of 780 s.
The result for `Cc1ccc(C)c(NC(=O)N2C[C@H](c3nc(-c4cccnc4)no3)[C@@H](C)C2)c1` reads 794 s; that for `CCCNC(=O)C1CCCN(c2nc3ncn(CC(=O)Nc4ccc(F)cc4)c(=O)c3s2)C1` (stereo not given), 692 s; that for `O=C(NCCCc1ccccc1)C1CCN(S(=O)(=O)c2ccc(-c3noc(C4CC4)n3)cc2)CC1`, 1060 s.
On to `COc1ccc(N2CCN(c3ncc(S(=O)(=O)c4ccc(C)cc4)c(N)n3)CC2)cc1`, for which the RP-LC retention time was determined as 919 s.
`CCc1cccc(Nc2c(C(=O)N3CCCCC3C)cnc3nc(C)ccc23)c1` (stereo not given): the RP-LC retention time was 677 s.
Molecule `Cn1nc(-c2ccccc2)cc1N` displayed an RP-LC retention time of 599 s.
`O=S(=O)(c1ccccc1)N1CC2CN(S(=O)(=O)c3cccc(F)c3)CC(C1)O2` yielded an RP-LC retention time of 905 s.
Take `CCOC(=O)c1nc(N(C)c2ccccc2CC)c2ccccc2n1`: the RP-LC retention time is 1010 s.
For the molecule `O=C(c1noc2ccc(S(=O)(=O)N3CCCc4ccccc43)cc12)N1CCCCC1`, the RP-LC retention time came to 1090 s.
As for `COc1cc(C(=O)N2CCCN(c3cc(-c4ccc(Br)cc4)[nH]n3)CC2)cc(OC)c1OC`, the RP-LC retention time was found to be 768 s.
Take `CSc1ccc(-c2nc3cnccn3c2Nc2ccc3c(c2)OCO3)cc1`: the RP-LC retention time was 890 s.
In turn, `COc1ccc(-c2cc3c4nn(CC(=O)N5CCCc6ccccc65)c(=O)n4ccn3n2)cc1` came in with an RP-LC retention time of 937 s.
